This note sets out measurements from patent EP4595964A1, “TREATMENT OF GM1 GANGLIOSIDOSIS” (Azafaros B.V., priority 2024, dated 2025).

Data set [1] has as its system control or GLB1-null cerebral organoids. Briefly: Cellularity test in cerebral organoids. The class given is cell-based, human. Particulars: any timepoint, 5 nM, 500 nM.
Data set [2] relates to GLB1-null Ex 2-3 cerebral organoids. The format is cell-based, human.
Data set [3] shares this test system. Briefly: Neuronal survival and health in the human brain organoid model of GM1 gangliosidosis. The class given is cell-based. Particulars: 5 nM, 500 nM; concomitant with the GM1 reduction.

Regarding `OC[C@H]1[C@@H](O)[C@H](O)[C@@H](O)CN1CCCCCOCc1ccc(-c2ccccc2)c(F)c1` [nizubaglustat], the cellularity entry in data set [1] is listed as “did not reduce”. Besides, the GM1 accumulation result in data set [2] (5 nM, 500 nM, weeks 18, 20 and 24, dose-dependent fashion, GLB1-null Ex 2-3 cerebral organoids) is recorded as “significantly reduced”. In data set [2] (Week 24, representative images (Figure 4 top panel), green stain), the “level of GLB1 in the EX 2-3 cell line” value is recorded as “significantly reduces”. For the same compound, the “reduced the level of GM1 ganglioside” value in data set [2] (after 24 weeks of regular (2-3 times per week) administration) is recorded as “at least 2 fold”. In addition, in data set [3], the “neuronal survival and health” value is given as “increased”.
